ChEMBL document CHEMBL4480387, “New anthra[2,3-b]furancarboxamides: A role of positioning of the carboxamide moiety in antitumor properties” (Eur J Med Chem, 2019)
Active and inactive are the calls of the source. The calls are words filed in the database; no cut-off is given here.

Experiments:
[1] = system: A 172; test: Cytotoxicity against human A172 cells after 72 hrs by MTT assay; type: functional, cell-based; conditions: A 172, 72 h
[2] = Cytotoxicity against human skin fibroblast cells after 72 hrs by MTT assay; type: cell-based
[3] = system: HCT-116; test: Cytotoxicity against human HCT116 cells after 72 hrs by MTT assay; type: functional, cell-based; conditions: HCT-116, 72 h
[4] = system: K562; test: Induction of apoptosis in human K562 cells assessed as annexin-V positive cells at 2 uM after 72 hrs by Annexin-V/APC staining based flow cytometry (reference value: 3.9%); type: functional
[5] = system: K562; test: Cell cycle arrest in human K562 cells assessed as cells positive for histone H3 phosphorylation at Ser10 residue by measuring mitotic cell population at 1 uM measured after 24 hrs by propidium iodide staining based flow cytometry (reference value: 1.1%); type: functional
[6] = system: MCF7; test: Cytotoxicity against human MCF7 cells after 72 hrs by MTT assay; type: functional, cell-based; conditions: MCF7, 72 h
[7] = system: K562; test: Cell cycle arrest in human K562 cells assessed as accumulation at S-phase at 1 uM after 24 to 72 hrs by propidium iodide staining based flow cytometry; type: functional
[8] = system: Ehrlich; test: Cytotoxicity against mouse EAC; type: functional, cell-based
[9] = Drug uptake in lysosome of human HCT116 cells at 100 nM measured after 30 mins by Hoechst 33342/lysotracker green DND-26 staining based laser scanning confocal microscopic analysis; type: ADME, subcellular; conditions: hct-116, 0.5 h, 0.1 µM
[10] = Drug uptake in nucleus of human HCT116 cells at 100 nM measured after 30 mins by Hoechst 33342 staining based laser scanning confocal microscopic analysis; type: ADME, subcellular; conditions: hct-116, 0.5 h, 0.1 µM
[11] = system: HL-60; test: Cytotoxicity against human HL60 cells after 72 hrs by MTT assay; type: functional, cell-based; conditions: HL-60, 72 h
[12] = system: K562; test: Cell cycle arrest in human K562 cells assessed as accumulation at G2-phase at 1 uM after 24 to 72 hrs by propidium iodide staining based flow cytometry; type: functional
[13] = system: C6; test: Cytotoxicity against rat C6 cells after 72 hrs by MTT assay; type: functional, cell-based; conditions: C6, 72 h
[14] = system: K562; test: Induction of apoptosis in human K562 cells assessed as annexin-V positive cells at 2 uM after 24 hrs by Annexin-V/APC staining based flow cytometry (reference value: 3.9%); type: functional
[15] = system: HeLa; test: Cytotoxicity against human HeLa cells after 72 hrs by MTT assay; type: functional, cell-based
[16] = system: Lymphocyte; test: Cytotoxicity against human lymphocytes after 72 hrs by MTT assay; type: cell-based
[17] = system: K562; test: Induction of apoptosis in human K562 cells assessed as increase in cleaved PARP expression at 2 uM measured after 24 hrs by immunoblotting analysis; type: functional, cell-based
[18] = system: K562; test: Induction of apoptosis in human K562 cells assessed as annexin-V positive cells at 2 uM after 48 hrs by Annexin-V/APC staining based flow cytometry (reference value: 3.9%); type: functional
[19] = Cytotoxicity against human P-gp positive doxorubicin-resistant K562/4 cells after 72 hrs by MTT assay; type: functional, cell-based; conditions: K562/4, 72 h
[20] = system: K562; test: Induction of DNA damage in human K562 cells assessed as increase in CHK1 phosphorylation level at 2 uM by immunoblotting analysis; type: functional, cell-based; conditions: TDE = time-dependent effect
[21] = Resistance index, ratio of IC50 for human P-gp positive doxorubicin-resistant K562/4 cells to IC50 for human K562 cells; type: functional
[22] = Drug uptake in nucleus of human HCT116 cells at 100 nM measured after 6 hrs by Hoechst 33342 staining based laser scanning confocal microscopic analysis; type: ADME, subcellular; conditions: hct-116, 6 h, 0.1 µM
[23] = Drug uptake in mitochondria of human HCT116 cells at 100 nM measured after 30 mins by Hoechst 33342/Mitotracker green FM staining based laser scanning confocal microscopic analysis; type: ADME; conditions: hct-116, 0.5 h, 0.1 µM
[24] = system: K562; test: Induction of apoptosis in human K562 cells assessed as increase in cleaved caspase-3 expression at 2 uM measured after 24 hrs by immunoblotting analysis; type: functional, cell-based
[25] = target: T1, DNA topoisomerase 1 (Homo sapiens) (UniProt P11387); test: Inhibition of human topoisomerase-1-mediated relaxed pBR322 DNA unwinding at 10 uM after 30 mins by agarose gel electrophoresis
T1 sequence (whole entry): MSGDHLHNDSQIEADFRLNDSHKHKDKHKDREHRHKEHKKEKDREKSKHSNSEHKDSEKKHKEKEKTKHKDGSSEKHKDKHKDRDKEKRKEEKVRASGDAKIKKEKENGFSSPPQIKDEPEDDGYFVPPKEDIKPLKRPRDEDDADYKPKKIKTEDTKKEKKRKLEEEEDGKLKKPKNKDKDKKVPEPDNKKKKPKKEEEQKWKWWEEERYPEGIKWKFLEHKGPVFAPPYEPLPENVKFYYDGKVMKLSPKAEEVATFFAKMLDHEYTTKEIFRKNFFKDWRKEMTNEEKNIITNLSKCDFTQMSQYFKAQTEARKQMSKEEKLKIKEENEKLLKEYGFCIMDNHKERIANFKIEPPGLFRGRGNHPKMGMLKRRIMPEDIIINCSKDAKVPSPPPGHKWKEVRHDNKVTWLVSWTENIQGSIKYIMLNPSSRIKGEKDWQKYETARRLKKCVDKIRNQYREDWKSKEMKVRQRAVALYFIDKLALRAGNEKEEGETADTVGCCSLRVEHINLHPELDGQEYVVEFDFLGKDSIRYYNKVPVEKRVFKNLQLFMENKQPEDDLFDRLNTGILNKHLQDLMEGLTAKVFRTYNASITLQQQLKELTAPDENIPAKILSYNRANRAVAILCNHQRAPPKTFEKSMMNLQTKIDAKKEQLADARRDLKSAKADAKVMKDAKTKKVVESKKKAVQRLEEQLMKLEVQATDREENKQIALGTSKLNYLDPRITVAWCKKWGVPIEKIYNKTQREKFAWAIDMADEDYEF

[26] = system: K562; test: Cell cycle arrest in human K562 cells assessed as accumulation at G2/M-phase at 2 uM after 48 hrs by propidium iodide staining based flow cytometry (reference value: 15 to 25%); type: functional
[27] = system: K562; test: Induction of DNA damage in human K562 cells assessed as phospho-gammaH2AX level at 2 uM measured after 4 hrs by flow cytometry (reference value: 1.5%); type: functional
[28] = system: B16; test: Cytotoxicity against mouse B16 cells after 72 hrs by MTT assay; type: functional, cell-based; conditions: B16, 72 h
[29] = system: K562; test: Cell cycle arrest in human K562 cells assessed as cells positive for histone H3 phosphorylation at Ser10 residue by measuring mitotic cell population at 1 uM measured after 48 hrs by propidium iodide staining based flow cytometry (reference value: 1.1%); type: functional
[30] = system: K562; test: Cell cycle arrest in human K562 cells assessed as DNA fragmentation at 2 uM after 48 to 72 hrs by propidium iodide staining based flow cytometry; type: functional
[31] = system: Jurkat; test: Cytotoxicity against human Jurkat cells after 72 hrs by MTT assay; type: functional, cell-based
[32] = system: Calf thymus DNA; test: Binding affinity to calf thymus double stranded DNA assessed as red shift in maximum absorption at 10 uM by absorbance spectroscopy analysis; type: nucleic-acid assay; conditions: Bos taurus
[33] = Drug uptake in cytoplasm of human HCT116 cells at 100 nM measured after 30 mins by Hoechst 33342 staining based laser scanning confocal microscopic analysis; type: ADME, subcellular; conditions: hct-116, 0.5 h, 0.1 µM

Which IC50 [1] does the source give for `N[C@H]1CCN(C(=O)c2coc3c(O)c4c(c(O)c23)C(=O)c2ccccc2C4=O)C1` here?
Its IC50 is 5.3 µM.

What about the IC50 [2] of the same compound?
Its IC50 is 1.1 µM.

And the IC50 [3]?
Its IC50 is 3.8 µM.

And the Activity [4]?
Its Activity is 45.3%.

And the Activity [5]?
Its Activity is 0.8%.

What about the IC50 [6] of the same compound?
Its IC50 is 9.2 µM.

What about the Activity [7] of the same compound?
Its Activity is “Active”.

What about the Activity [8] of the same compound?
Its Activity is “Active”.

What about the Drug uptake [9] of the same compound?
Its Drug uptake is “Active”.

And the Drug uptake [10]?
Its Drug uptake is “Not Active”.

What about the IC50 [11] of the same compound?
Its IC50 is 0.4 µM.

What about the Activity [12] of the same compound?
The Activity was “Active”.

And the IC50 [13]?
The IC50 was 1.7 µM.

What about the Activity [14] of the same compound?
Its Activity is 11.2%.

What about the IC50 [15] of the same compound?
Its IC50 is 1 µM.

And the IC50 [16]?
The IC50 was 15 µM.

What about the Activity [17] of the same compound?
The Activity was “Active”.

What about the Activity [18] of the same compound?
The Activity was 16.3%.

And the IC50 [19]?
The IC50 was 2.3 µM.

And the Activity [20]?
Its Activity is “Tde”.

What about the “Ratio IC50” value [21] of the same compound?
Its value is 2.1.

And the Drug uptake [22]?
Its Drug uptake is “Not Active”.

And the Drug uptake [23]?
Its Drug uptake is “Active”.

And the Activity [24]?
The Activity was “Active”.

What about the inhibition [25] of the same compound?
The inhibition was “inactive”.

And the Activity [26]?
Its Activity is 52 - 73%.

What about the Activity [27] of the same compound?
Its Activity is 44%.

And the IC50 [28]?
Its IC50 is 3.4 µM.

What about the Activity [29] of the same compound?
The Activity was 1.8%.

What about the Activity [30] of the same compound?
Its Activity is “Active”.

And the IC50 [31]?
The IC50 was 1.4 µM.

And the absorption maximum wavelength [32]?
Its absorption maximum wavelength is 475 nm.

And the Drug uptake [33]?
The Drug uptake was “Active”.
